# Data as given in patent publication US20210392882A1, “METHODS AND COMPOSITIONS FOR IMPROVED INSECT REPELLENCY” (Board of Trustees of Michigan State University, priority 2020, published 2021).
# Test system: mosquito sodium channel (AaNav1-1)
# Experiment: Two-electrode voltage clamp of sodium channels expressed in Xenopus oocytes
# Assay type: cell-based, Aedes aegypti
# Conditions: 20 ms step-depolarization before and after exposure; FIG. 4J
# Description: FIG. 4A-4J illustrate that pyrethrin-induced repellency is synergized by (E)-β-farnesene via activation of both AaOr31 and sodium channels. […] FIG. 4B graphically illustrates repellency elicited by pyrethrin I (P-I) and pyrethrin II (P-II) at 10^−3 dilution in Orlando (wild-type) and orco^−/− mosquitoes (n=9 cages for Orlando control from 2 batches of mosquitoes; n=10 cages for orco−/− control from 2 batches of mosquitoes, P-I: U=31, n=11 cages for Orlando; and n=12 cages for orco−/− from 3 batches of mosquitoes, P-II: U=15; n=14 cages for Orlando; and n=15 cages for orco−/− from 4 batches of mosquitoes). […] The effect of pyrethrum was measured 10 minutes after its application. Pyrethrum-induced tail currents were recorded during a 100-pulse train of 5 milliseconds step depolarizations from −120 to −10 mV with 5 milliseconds inter-pulse intervals (Du et al. (2013)). The percentage of pyrethrum-modified channels was calculated using the following equation: M=[Itail/(Eh−ENa)]/[INa/(Et−ENa)]×100; where Itail is the maximal tail current amplitude, Eh is the potential to which the membrane is repolarized, ENa is the reversal potential for sodium currents determined from the current-voltage curve, INa is the amplitude of the peak current during depolarization before pyrethrum exposure, and Et is the potential of the step depolarization. […]
smiles,measurement,value
"CC1(C)C2CCC1(C)C(O)C2 (single isomer, unassigned; (-)) [(−)-borneol]",effect on peak current and channel gating,no effects
